Results: patent US20190112316A1, “THIAZOLO[3,2-A] PYRIMIDINONE AND OTHER HETEROBICYCLIC PYRIMIDINONE COMPOUNDS FOR USE IN MEDICAL THERAPY” (priority 2015, published 2019)

Target: T1, glucocerebrosidase (Gcase) (Homo sapiens, UniProt P04062)
T1 construct: micellar solution containing 10 nM GCase and 100 nM saposin C (Enzo ALX-201-262-C050)
T1 sequence (P04062 40-536): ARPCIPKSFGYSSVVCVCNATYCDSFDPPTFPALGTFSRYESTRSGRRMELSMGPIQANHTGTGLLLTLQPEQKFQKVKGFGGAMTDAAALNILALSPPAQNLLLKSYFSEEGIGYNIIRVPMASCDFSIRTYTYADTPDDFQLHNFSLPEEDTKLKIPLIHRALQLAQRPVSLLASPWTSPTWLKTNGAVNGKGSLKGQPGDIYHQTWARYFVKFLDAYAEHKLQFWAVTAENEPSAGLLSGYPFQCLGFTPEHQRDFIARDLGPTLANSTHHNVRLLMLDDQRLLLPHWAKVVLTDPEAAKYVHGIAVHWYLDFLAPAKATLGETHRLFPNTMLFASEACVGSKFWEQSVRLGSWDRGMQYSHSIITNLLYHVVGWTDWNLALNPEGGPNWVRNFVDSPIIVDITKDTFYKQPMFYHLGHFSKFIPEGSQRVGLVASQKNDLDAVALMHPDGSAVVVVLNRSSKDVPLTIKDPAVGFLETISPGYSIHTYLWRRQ
Test: Glucocerebrosidase (Gcase) activation assay, 4-methylumbelliferyl-beta-D-glucopyranoside substrate, with saposin C
Format: biochemical
Conditions: read-out: Percent Gcase Activation 0.1 μM Test Compound
Description: A 484 μL aliquot of a 1.0 mg/mL solution of phosphatidylserine (PS) (Sigma P7769) in chloroform was evaporated under a stream of nitrogen for 1 hour. The lipid film was dissolved over 4 minutes of vigorous vortexing in 40 mL of 176 mM K2HPO4/50 mM citric acid (pH 4.7) containing 7.5 μL of triton X-100, resulting in a mixed micellar preparation with a composition of 0.32 mM triton and 0.37 mol % PS. 4-Methylumbelliferyl-beta-D-glucopyranoside (ACROS-337025000) was dissolved in the micellar solution to a final concentration of 2 mM for use as the reaction substrate.
Test compounds were diluted to the desired concentrations with dimethylsulfoxide (DMSO) from 10 mM stocks, and 0.41 μL of the DMSO compound mixture was added to 100 μL of micellar solution containing 10 nM GCase and 100 nM saposin C (Enzo ALX-201-262-C050). Pre-incubation was allowed to occur for 30 minutes at room temperature, after which the reaction was initiated by combining 25 μL of substrate solution with 25 μL of compound/GCase/saposin mixture. The reaction proceeded for 15 minutes at room temperature and was stopped by adding 150 μL of 1M glycine, pH 12.5. The endpoint of the reaction was monitored by measuring fluorescence intensity (excitation: 365 nm; emission: 440 nm) on a SpectraMax i3 instrument (Molecular Devices). Test compounds were screened at 1.0 and 0.1 μM final concentration, and subsequent 8-point dose response curves were obtained using 3-fold dilutions from a maximum final concentration of 5 μM.

Row | activation at 0.1 µM | Structure (SMILES)
1 | < 5% | CCC(C)c1ccc(NC(=O)c2cnc3sccn3c2=O)cc1 (stereo not shown)
2 | < 5% | Cc1csc2ncc(C(=O)Nc3ccc4c(c3)OCO4)c(=O)n12
3 | 5 to 20% | COCC#Cc1ccc(NC(=O)c2cnc3n(c2=O)CCS3)cc1
4 | < 5% | Cc1csc2ncc(C(=O)Nc3ccc(-c4cocn4)cc3)c(=O)n12
5 | < 5% | Cc1cccc2ncc(C(=O)NC3CCOc4ccccc43)c(=O)n12 (stereo not shown)
6 | 5 to 20% | Cc1csc2ncc(C(=O)Nc3ccc(Oc4ccccc4)cc3)c(=O)n12
7 | 5 to 20% | CCCCC1CCC(NC(=O)c2cnc3n(c2=O)CCS3)CC1 (stereo not shown)
8 | 5 to 20% | O=C(Nc1ccc(-c2ccco2)cc1)c1cnc2n(c1=O)CCS2
9 | < 5% | O=C(Nc1ccc(-c2cocn2)cc1)c1cnc2n(c1=O)CCS2
10 | < 5% | Cc1ccc(NC(=O)c2cnc3n(c2=O)CCS3)cc1-c1ncco1
11 | < 5% | Cc1cccc2ncc(C(=O)NC3CC4CCC3C4)c(=O)n12 (stereo not shown)

Same assay, conditions: read-out: Percent Gcase Activation 1 μM Test Compound

Row | Structure (SMILES) | activation at 1 µM
12 | Cc1ccc(NC(=O)c2cnc3scc(C)n3c2=O)c(C)c1 | > 20%
13 | CCCCc1ccc(NC(=O)c2cnc3sc4c(n3c2=O)CCCC4)cc1 | 5 to 20%
14 | CCCCc1ccc(NC(=O)c2cnc3scc(-c4ccccc4)n3c2=O)cc1 | > 20%
15 | COC(=O)c1ccc(NC(=O)c2cnc3scc(C)n3c2=O)cc1 | 5 to 20%
16 | CCc1ccc(NC(=O)c2cnc3scc(-c4ccccc4)n3c2=O)cc1 | > 20%
17 | Cc1ccc(CNC(=O)c2cnc3scc(C)n3c2=O)cc1 | 5 to 20%
18 | CCOc1ccc(NC(=O)c2cnc3scc(C)n3c2=O)cc1 | 5 to 20%
19 | CCCCOC(=O)c1ccc(NC(=O)c2cnc3scc(C)n3c2=O)cc1 | > 20%
20 | Cc1sc2ncc(C(=O)Nc3ccc(C(C)C)cc3)c(=O)n2c1C | < 5%
21 | CCC(C)c1ccc(NC(=O)c2cnc3sccn3c2=O)cc1 (stereo not shown) | > 20%
22 | CCOc1ccccc1NC(=O)c1cnc2scc(C)n2c1=O | 5 to 20%
23 | COCC#Cc1ccc(NC(=O)c2cnc3n(c2=O)CCS3)cc1 | 5 to 20%
24 | Cc1csc2ncc(C(=O)Nc3ccc(-c4cocn4)cc3)c(=O)n12 | 5 to 20%
25 | Cc1cccc2ncc(C(=O)NC3CCOc4ccccc43)c(=O)n12 (stereo not shown) | 5 to 20%
26 | Cc1ccc(NC(=O)c2cnc3sc(C)cn3c2=O)cc1 | 5 to 20%
27 | Cc1csc2ncc(C(=O)Nc3ccc(Oc4ccccc4)cc3)c(=O)n12 | > 20%
28 | CCCCC1CCC(NC(=O)c2cnc3n(c2=O)CCS3)CC1 (stereo not shown) | > 20%
29 | Cc1cc(C)cc(NC(=O)c2cnc3sccn3c2=O)c1 | 5 to 20%
30 | O=C(Nc1ccc(-c2ccco2)cc1)c1cnc2n(c1=O)CCS2 | 5 to 20%
31 | O=C(Nc1ccc(-c2cocn2)cc1)c1cnc2n(c1=O)CCS2 | < 5%
32 | Cc1ccc(NC(=O)c2cnc3n(c2=O)CCS3)cc1-c1ncco1 | 5 to 20%
33 | Cc1cccc2ncc(C(=O)NC3CC4CCC3C4)c(=O)n12 (stereo not shown) | 5 to 20%

Further lines, results first:

Row | activation at 1 µM | Structure (SMILES)
34 | 5 to 20% | COc1cccc(NC(=O)c2cnc3scc(C)n3c2=O)c1
35 | 5 to 20% | Cc1ccc(NC(=O)c2cnc3scc(C)n3c2=O)cc1C
36 | 5 to 20% | Cc1ccc(NC(=O)c2cnc3sccn3c2=O)cc1C
37 | 5 to 20% | Cc1ccc(NC(=O)c2cnc3scc(C)n3c2=O)cc1F
38 | > 20% | COc1ccc(NC(=O)c2cnc3scc(C)n3c2=O)cc1
39 | 5 to 20% | Cc1csc2ncc(C(=O)Nc3ccc4c(c3)OCO4)c(=O)n12
40 | 5 to 20% | Cc1csc2ncc(C(=O)Nc3ccc(N(C)C)cc3)c(=O)n12
41 | 5 to 20% | COc1ccc(NC(=O)c2cnc3scc(C)n3c2=O)c(OC)c1
42 | 5 to 20% | Cc1ccccc1NC(=O)c1cnc2scc(C)n2c1=O
43 | > 20% | CCc1cccc(NC(=O)c2cnc3scc(C)n3c2=O)c1
44 | 5 to 20% | Cc1ccc(NC(=O)c2cnc3scc(C)n3c2=O)cc1Cl
45 | > 20% | Cc1csc2ncc(C(=O)Nc3ccc(Cl)cc3)c(=O)n12
46 | < 5% | Cc1csc2ncc(C(=O)Nc3ccc(F)cc3)c(=O)n12
